Results published in paper PMC5428418, “Differential expression of chemosensory-protein genes in midguts in response to diet of Spodoptera litura” (Scientific Reports, 2017).
Like-named read-outs stand apart in the source and are kept apart here.

Experiments:
recombinant SlitCSP3 = recombinant SlitCSP3 (Spodoptera litura, UniProt A0A9J7EMU8); format: binding; conditions: for binding affinity to SlitCSP3 (in words): competitive binding with 1-NPN
From the text: (§1) The curves were linearized by Scatchard plots.

recombinant SlitCSP11 = recombinant SlitCSP11 (Spodoptera litura, UniProt A0A0P0EM27); format: binding; conditions: for binding affinity to SlitCSP11 (in words): competitive binding with 1-NPN; for IC50 SlitCSP11: competitor's concentration halving the initial fluorescence, protein 2 μM, ligand 0 to 20 μM, 1-NPN probe; for Kd SlitCSP11: dissociation constant of the competitor calculated from IC50: KD = [IC50]/(1 + [1-NPN]/K1-NPN)
From the text: as §1

recombinant SlitCSP8 = recombinant SlitCSP8 (Spodoptera litura, UniProt A0A0P0EUM0); assay: Fluorescence competitive binding assay (1-NPN displacement), SlitCSP8; conditions: for binding affinity to SlitCSP8 (in words): competitive binding with 1-NPN; for IC50 SlitCSP8 / IC50: competitor's concentration halving the initial fluorescence, protein 2 μM, ligand 0 to 20 μM, 1-NPN probe; for Kd SlitCSP8 / Kd: dissociation constant of the competitor calculated from IC50: KD = [IC50]/(1 + [1-NPN]/K1-NPN); for IC50: read-out: IC50 SlitCSP8; for Kd: read-out: Kd SlitCSP8
Method: The fluorescence spectra were recorded on an F-4500 FL Fluorescence Spectrophotometer (HITACHI) in a 1 cm light path quartz cuvette at 23 °C. The slit width used for excitation and emission was 5 nm. The compounds used to investigate the binding abilities of SlitCSPs were purchased from Sigma-Aldrich with the highest purity and stored as specified instruction by the manufacturer. […] The fluorescent probe N-phenyl-1-naphthylamine (1 − NPN) and all ligands used in competition experiments were dissolved in HPLC purity grade methanol. […] And then, 2 μM of protein was added and titrated with aliquots of 1 mM 1 − NPN to final concentrations of 2 to 20 μM. […] All values reported were obtained from three independent measurements. The corresponding to the maximum fluorescence emission was plotted against the ligand concentrations for the determination of the binding constants. The curves were linearized by Scatchard plots.

[1] = competitor's concentration halving the initial fluorescence, protein 2 μM, ligand 0 to 20 μM, 1-NPN probe
[2] = dissociation constant of the competitor calculated from IC50: KD = [IC50]/(1 + [1-NPN]/K1-NPN)

Sequence of recombinant SlitCSP8 (A0A0P0EUM0 18-128 with tags or gaps limits assumed): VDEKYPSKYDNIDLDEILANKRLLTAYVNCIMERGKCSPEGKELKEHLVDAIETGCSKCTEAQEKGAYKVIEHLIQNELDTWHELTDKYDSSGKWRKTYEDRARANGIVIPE
Sequence of recombinant SlitCSP11 (A0A0P0EM27 entry or part of it): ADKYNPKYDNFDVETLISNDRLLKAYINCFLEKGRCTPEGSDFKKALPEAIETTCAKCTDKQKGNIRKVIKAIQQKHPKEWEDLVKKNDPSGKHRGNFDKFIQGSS
Sequence of recombinant SlitCSP3 (A0A9J7EMU8 entry or part of it): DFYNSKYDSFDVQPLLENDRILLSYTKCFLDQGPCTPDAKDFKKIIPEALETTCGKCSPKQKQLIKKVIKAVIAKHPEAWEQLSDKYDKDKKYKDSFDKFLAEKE

| SMILES | IC50 SlitCSP3 (recombinant SlitCSP3; [1]) | Kd SlitCSP3 (recombinant SlitCSP3; [2]) | IC50 SlitCSP11 (recombinant SlitCSP11) | Kd SlitCSP11 (recombinant SlitCSP11) | binding affinity to SlitCSP8 (in words) (recombinant SlitCSP8) | IC50 SlitCSP8 (recombinant SlitCSP8) | Kd SlitCSP8 (recombinant SlitCSP8) | further results |
| --- | --- | --- | --- | --- | --- | --- | --- | --- |
| CCc1ccco1 [2-Ethylfuran] | u.d | u.d | u.d | u.d | poor affinities | u.d | u.d | binding affinity to SlitCSP3 (in words) (recombinant SlitCSP3): poor affinities; binding affinity to SlitCSP11 (in words) (recombinant SlitCSP11): poor affinities |
| O=Cc1ccc(CO)o1 [5-(Hydroxymethyl)furfural] | – | – | u.d | u.d | – | u.d | u.d | – |
| O=Cc1ccccc1 [Benzaldehyde] | – | – | – | – | – | – | – | IC50 (recombinant SlitCSP8): 5.26 µM; Kd (recombinant SlitCSP8): 7.47 µM |
| N#Cc1ccccc1 [Benzonitrile] | u.d | u.d | u.d | u.d | poor affinities | u.d | u.d | binding affinity to SlitCSP3 (in words) (recombinant SlitCSP3): poor affinities; binding affinity to SlitCSP11 (in words) (recombinant SlitCSP11): poor affinities |
| OCc1ccccc1 [Benzyl alcohol] | u.d | u.d | – | – | at low concentrations | – | – | – |
| CCCCN=C=S [Butyl isothiocyanate] | u.d | u.d | – | – | – | u.d | u.d | – |
| CCCCCCCCCC#N [Decanenitrile] | u.d | u.d | u.d | u.d | poor affinities | u.d | u.d | binding affinity to SlitCSP3 (in words) (recombinant SlitCSP3): poor affinities; binding affinity to SlitCSP11 (in words) (recombinant SlitCSP11): poor affinities |
| O=Cc1ccco1 [Furan-2-carboxaldehyde] | u.d | u.d | – | – | – | u.d | – | – |
| CCCCCCCCCCCCCCCC(=O)O [Hexadecanoic acid] | u.d | u.d | – | – | – | u.d | u.d | – |
| CCCCCC=O [Hexanal] | u.d | – | u.d | u.d | – | – | – | Kd SlitCSP3 (recombinant SlitCSP3): u.d; binding affinity to SlitCSP3 (in words) (recombinant SlitCSP3): poor affinities; binding affinity to SlitCSP11 (in words) (recombinant SlitCSP11): poor affinities |
| NC(=O)c1ccncc1 [Isonicotinamide] | – | – | – | – | at low concentrations | – | – | – |
| CC1CCC(C(C)C)C(O)C1 (stereo not shown) [Menthol] | – | – | – | – | – | ud | u.d | – |
| S=C=NCCc1ccccc1 [Phenethyl isothiocyanate] | – | – | – | – | – | – | – | IC50 (recombinant SlitCSP8): 4.34 µM; Kd (recombinant SlitCSP8): 6.17 µM |
| c1ccncc1 [Pyridine] | – | – | – | – | – | u.d | u.d | IC50 SlitCSP3 (recombinant SlitCSP3): u.d; Kd SlitCSP3 (recombinant SlitCSP3): u.d |
| C=Cc1ccccc1 [Styrene] | u.d | u.d | – | – | – | u.d | u.d | – |
| CC/C=C\CCO [cis-3-Hexen-1-ol] | u.d | u.d | u.d | u.d | at low concentrations | – | – | – |
| CCC/C=C/C(=O)O [trans-2-Hexenoic acid] | – | – | u.d | u.d | – | – | – | – |
